Experimental data taken from the NIST ThermoML archive (doi:10.1016/j.jct.2006.03.008).
Values joined by “and” are separate entries in the source; they are usually repeats but may differ in a detail not shown here. Identical values can stand only once.

Conditions: for vapor or sublimation pressure: Closed cell (Static) method; for mass density: Fluid (supercritical or subcritical phases), Bellows volumetry

CC(C)C [2-methylpropane]
Conditions	Critical pressure [kPa]	Critical temperature [K]	mass density	vapor or sublimation pressure
310 K, Liquid	–	–	–	489.5 kPa [middle of 6 runs]
405 K, 3464.7 kPa	–	–	185 kg/m3	–
405 K, 3467.3 kPa	–	–	199.9 kg/m3 and 200 kg/m3	–
405 K, 3468 kPa	–	–	200 kg/m3	–
405 K, 3468.4 kPa	–	–	200 kg/m3	–
405 K, 3469.9 kPa	–	–	264.9 kg/m3	–
405 K, Liquid	–	–	–	3468.8 kPa [middle of 6 runs]
406 K, 3523.7 kPa	–	–	184.9 kg/m3	–
406 K, 3525.7 kPa	–	–	199.9 kg/m3	–
406 K, 3528.1 kPa	–	–	264.9 kg/m3	–
406 K, Liquid	–	–	–	3527 kPa [middle of 6 runs]
407 K, 3582.1 kPa	–	–	185.4 kg/m3	–
407 K, 3585 kPa	–	–	200.3 kg/m3	–
407 K, Liquid	–	–	–	3585.5 kPa [middle of 7 runs]
407.5 K, 3613.8 kPa	–	–	185 kg/m3	–
407.5 K, 3617.5 kPa	–	–	199.9 kg/m3	–
407.5 K, 3617.7 kPa	–	–	200.4 kg/m3	–
407.5 K, 3620.6 kPa	–	–	265 kg/m3	–
407.5 K, Liquid	–	–	–	3619 kPa [middle of 6 runs]
407.89 K, 3632.3 kPa	–	–	184.9 kg/m3	–
407.89 K, 3637.6 kPa	–	–	200.1 kg/m3	–
407.89 K, 3640.5 kPa	–	–	240 kg/m3	–
407.89 K, 3640.6 kPa	–	–	250 kg/m3	–
407.89 K, 3640.8 kPa	–	–	250.2 kg/m3	–
407.89 K, 3640.9 kPa	–	–	241.4 kg/m3	–
407.89 K, 3641.3 kPa	–	–	250.5 kg/m3	–
407.89 K, 3644.5 kPa	–	–	263.7 kg/m3	–
407.89 K, 3644.6 kPa	–	–	264.9 kg/m3	–
408 K, 3635.8 kPa	–	–	184.1 kg/m3	–
408 K, 3638.1 kPa	–	–	184.9 kg/m3	–
408 K, 3643.7 kPa	–	–	200 kg/m3	–
408 K, 3644.2 kPa	–	–	200.4 kg/m3	–
408 K, 3645.6 kPa	–	–	220 kg/m3	–
408 K, 3646.4 kPa	–	–	227.5 kg/m3	–
408 K, 3646.6 kPa	–	–	240 kg/m3	–
408 K, 3646.8 kPa	–	–	220.1 kg/m3	–
408 K, 3647.4 kPa	–	–	249.9 kg/m3	–
408 K, 3652.4 kPa	–	–	265.5 kg/m3	–
409 K, 3692.1 kPa	–	–	184.7 kg/m3	–
409 K, 3692.8 kPa	–	–	184.9 kg/m3	–
409 K, 3702.2 kPa	–	–	200 kg/m3	–
409 K, 3702.8 kPa	–	–	200.4 kg/m3	–
409 K, 3708.3 kPa	–	–	219.8 kg/m3	–
409 K, 3708.5 kPa	–	–	219.9 kg/m3	–
409 K, 3708.9 kPa	–	–	220.4 kg/m3	–
409 K, 3709.7 kPa	–	–	224.2 kg/m3	–
409 K, 3710.5 kPa	–	–	227.4 kg/m3	–
409 K, 3713.6 kPa	–	–	239.9 kg/m3	–
409 K, 3717.7 kPa	–	–	250 kg/m3	–
409 K, 3718.4 kPa	–	–	250.4 kg/m3	–
409 K, 3729 kPa	–	–	265 kg/m3	–
410 K, 3745.3 kPa	–	–	185 kg/m3	–
410 K, 3757.5 kPa	–	–	200 kg/m3	–
410 K, 3758.2 kPa	–	–	200 kg/m3	–
410 K, 3764.3 kPa	–	–	210 kg/m3	–
410 K, 3769.4 kPa	–	–	220 kg/m3	–
410 K, 3772.2 kPa	–	–	227.4 kg/m3	–
410 K, 3772.5 kPa	–	–	228.1 kg/m3	–
410 K, 3779.4 kPa	–	–	240 kg/m3	–
410 K, 3785.9 kPa	–	–	250 kg/m3	–
410 K, 3786.3 kPa	–	–	250.4 kg/m3	–
410 K, 3802.3 kPa	–	–	265 kg/m3	–
410 K, 3802.8 kPa	–	–	265.2 kg/m3	–
Liquid, Direct measurement	3639	–	–	–
Liquid, Visual observation in an unstirred cell	–	407.88	–	–
